# From ChEMBL document CHEMBL1687844, “In Vitro antiretroviral properties of S/GSK1349572, a next-generation HIV integrase inhibitor” (Antimicrob Agents Chemother, 2011)
# Calls of active or inactive are those of the source. The calls are words filed in the database; no cut-off is given here.
# How the values were obtained:
# [1] = tested on: Human immunodeficiency virus 1; experiment: Antiviral activity against Human immunodeficiency virus 1 Bal infected in human PBMC assessed as incorporation of [methly-3H]dTTP to viral DNA after 7 days by reverse transcriptase activity in presence of 100% human serum relative to control
# [2] = tested on: Human immunodeficiency virus 1; experiment: Antiviral activity against Human immunodeficiency virus 1 Bal infected in human PBMC assessed as incorporation of [methly-3H]dTTP to viral DNA after 7 days by reverse transcriptase activity in presence of 100% human serum; conditions: 168 h
# [3] = tested on: Human immunodeficiency virus 1; experiment: Antiviral activity against Human immunodeficiency virus 1 3B harboring integrase T124A mutant gene infected in human MT2 cells assessed as inhibition of virus induced cytopathic effect selected after 14 passages measured after 2 to 3 days by PCR; assay type: functional, organism-based
# [4] = tested on: Human immunodeficiency virus 1; assay type: functional, organism-based; conditions: Human immunodeficiency virus 1, 3B, MT2
# [5] = tested on: Human immunodeficiency virus 1; assay type: functional, organism-based; conditions: Human immunodeficiency virus 1, 3B, MT2; remark: listed apart in the source
# [6] = tested on: Human immunodeficiency virus 1; assay type: functional, organism-based; conditions: Human immunodeficiency virus 1, 3B, MT2; remark: listed apart in the source
# [7] = tested on: Human immunodeficiency virus 1; assay type: functional, organism-based; conditions: Human immunodeficiency virus 1, 3B, MT2, 672 h
# [8] = tested on: Human immunodeficiency virus 1; experiment: Antiviral activity against Human immunodeficiency virus 1 3B infected in human MT2 cells assessed as inhibition of virus induced cytopathic effect measured after 2 to 3 days by PCR; assay type: functional, organism-based
# [9] = tested on: Human immunodeficiency virus 1; assay type: functional, organism-based; conditions: Human immunodeficiency virus 1, 3B, MT2; remark: listed apart in the source
# [10] = tested on: Human immunodeficiency virus 1; experiment: Antiviral activity against Human immunodeficiency virus 1 3B harboring reverse transcriptase M184V mutant infected in human MT2 cells assessed as inhibition of virus induced cytopathic effect selected on day 14 after 4 passages by PCR analysis; assay type: functional, organism-based; conditions: MT2, 336 h
# [11] = tested on: Human immunodeficiency virus 1; experiment: Antiviral activity against Human immunodeficiency virus 1 3B harboring reverse transcriptase M184V, M184I mutant infected in human MT2 cells assessed as inhibition of virus induced cytopathic effect selected on day 14 after 4 passages by PCR analysis; assay type: functional, organism-based; conditions: MT2, 336 h
# [12] = tested on: Human immunodeficiency virus 1; experiment: Antiviral activity against Human immunodeficiency virus 1 3B harboring reverse transcriptase M184V, M184I, K82N mutant infected in human MT2 cells assessed as inhibition of virus induced cytopathic effect selected on day 14 after 4 passages by PCR analysis; assay type: functional, organism-based; conditions: MT2, 336 h
# [13] = tested on: Human immunodeficiency virus 1; experiment: Antiviral activity against pseudo Human immunodeficiency virus 1 Bal infected in human CIP4 after 2 days by luciferase reporter gene assay in presence of 40 mg/ml HAS relative to control; assay type: functional
# [14] = Cytotoxicity against human U937 cells after 2 days by Cell titer Glo luminescent assay; assay type: cell-based, U-937
# [15] = tested on: Human immunodeficiency virus 1; experiment: Antiviral activity against Human immunodeficiency virus 1 NL432 infected in human MT4 cells assessed as inhibition of viral DNA integration after 18 hrs by quantitative PCR; assay type: functional, organism-based
# [16] = tested on: Human immunodeficiency virus 1; experiment: Antiviral activity against PI-resistant Human immunodeficiency virus 1 NL432 harboring […] L24I/M46I/L63P/A71V/G73S/V82Tmutant infected in human MT4 cells after 2 to 3 days by reverse transcriptase activity; assay type: functional, organism-based; conditions: Human immunodeficiency virus 1, NL432, MT4
# [17] = tested on: Human immunodeficiency virus 1; experiment: Antiviral activity against Human immunodeficiency virus 1 NL432 infected in human MT4 cells assessed as increase in 2-LTR circular DNA after 18 hrs by quantitative PCR; assay type: functional, organism-based
# [18] = tested on: Human immunodeficiency virus 1; experiment: Antiviral activity against Human immunodeficiency virus 1 3B infected in human MT4 cells assessed as viral viability after 4 to 5 days by Cell titer Glo luminescent assay; assay type: functional, organism-based
# [19] = tested on: Human immunodeficiency virus 2; experiment: Antiviral activity against Human immunodeficiency virus 2 clinical isolate obtained from HIV infected patients; assay type: functional, organism-based
# [20] = Cytotoxicity against human MT4 cells after 2 days by Cell titer Glo luminescent assay; assay type: cell-based
# [21] = tested on: Human immunodeficiency virus 1; experiment: Antiviral activity against Human immunodeficiency virus 1 NL432 infected in human MT4 cells assessed as effect on viral DNA production after 18 hrs by quantitative PCR; assay type: functional, organism-based
# [22] = tested on: Human immunodeficiency virus 1; experiment: Antiviral activity against Human immunodeficiency virus 1 Bal infected in human PBMC assessed as incorporation of [methly-3H]dTTP to viral DNA after 7 days by reverse transcriptase activity; assay type: functional, organism-based; conditions: 168 h
# [23] = Cytotoxicity against unstimulated human PBMC after 2 days by Cell titer Glo luminescent assay; assay type: cell-based
# [24] = Cytotoxicity against human MOLT4 cells after 2 days by Cell titer Glo luminescent assay; assay type: cell-based, MOLT-4
# [25] = tested on: Human immunodeficiency virus 1; experiment: Ratio of EC90 for protein-activated Human immunodeficiency virus 1 Bal infected in human PBMC to EC50 Human immunodeficiency virus 1 Bal infected in human PBMC; assay type: functional
# [26] = Cytotoxicity against human IM9 cells after 2 days by Cell titer Glo luminescent assay; assay type: cell-based, IM-9
# [27] = tested on: Human immunodeficiency virus 1; experiment: Antiviral activity against Human immunodeficiency virus 1 3B infected in human MT4 cells assessed as incorporation of [methly-3H]dTTP to viral DNA after 7 days by reverse transcriptase activity in presence of […]; assay type: functional
# [28] = tested on: Human immunodeficiency virus 1; experiment: Antiviral activity against Human immunodeficiency virus 1 3B infected in human MT4 cells assessed as incorporation of [methly-3H]dTTP to viral DNA after 7 days by reverse transcriptase activity in presence of 20% human serum albumin relative to control; assay type: functional
# [29] = tested on: Human immunodeficiency virus 1; experiment: Antiviral activity against pseudo Human immunodeficiency virus 1 Bal infected in human CIP4 after 2 days by luciferase reporter gene assay; assay type: functional, organism-based; conditions: CIP4, 48 h
# [30] = tested on: Human immunodeficiency virus 1; experiment: Antiviral activity against NNRTI-resistant Human immunodeficiency virus 1 NL432 harboring non-nucleotide reverse transcriptase […] mutant infected in human HeLa-CD4 cells after 2 to 3 days by reverse transcriptase activity; assay type: functional, organism-based; conditions: Human immunodeficiency virus 1, NL432, CD4; pooled result: one value given for 9 cell lines, strains, targets or settings
# [31] = Cytotoxicity against PHA-stimulated human PBMC after 2 days by Cell titer Glo luminescent assay; assay type: cell-based
# [32] = tested on: Human immunodeficiency virus 1; experiment: Antiviral activity against pseudo Human immunodeficiency virus 1 Bal infected in human CIP4 after 2 days by luciferase reporter gene assay in presence of 2 mg/ml AAG relative to control; assay type: functional
structure (smiles),measurement,setting,value
COc1cc2c(cc1Cc1cccc(Cl)c1F)c(=O)c(C(=O)O)cn2[C@H](CO)C(C)C,fold change (FC),[1],22
same,EC50,[2],20 nM
same,EC90,[2],78 nM
Cc1nnc(C(=O)NC(C)(C)c2nc(C(=O)NCc3ccc(F)cc3)c(O)c(=O)n2C)o1 [RALTEGRAVIR POTASSIUM],EC50,[3],0.26 nM
same,EC50,[4],6.4 nM
same,EC50,[5],1.3 nM
same,EC50,[2],5.6 nM
same,EC90,[2],23 nM
same,EC50,[6],6.4 nM
same,EC50,[7],0.26 nM
same,EC50,[8],0.26 nM
same,EC50,[9],32 nM
Nc1ccn([C@@H]2CS[C@H](CO)O2)c(=O)n1 [LAMIVUDINE],EC50,[10],800 nM
same,EC50,[11],800 nM
same,EC50,[12],800 nM
same,EC50,[8],800 nM
C[C@@H]1CCO[C@H]2Cn3cc(C(=O)NCc4ccc(F)cc4F)c(=O)c([O-])c3C(=O)N12.[Na+] [DOLUTEGRAVIR SODIUM],fold change (FC),[13],11
same,fold change (FC),[1],75
same,CC50 at 48 h,[14],7000 nM
same,inhibition,[15],Active
same,EC50,[16],0.36 nM
same,Activity,[17],Active
same,EC50,[18],0.71 nM
same,EC50,[19],0.8 nM
same,EC50,[2],38 nM
same,EC90,[2],152 nM
same,CC50 at 48 h,[20],14000 nM
same,Activity,[21],inactive
same,EC50,[22],0.51 nM
same,CC50 at 48 h,[23],189000 nM
same,CC50 at 48 h,[24],15000 nM
same,fold change (FC),[25],3
same,CC50 at 48 h,[26],4800 nM
same,fold change (FC),[27],75
same,EC50,[8],0.26 nM
same,fold change (FC),[28],32
same,EC50,[29],2.2 nM
same,EC50,[30],1.3 nM
same,CC50 at 48 h,[31],52000 nM
same,fold change (FC),[32],2.1
